Assay results reported in US20220133894A1, “BISPHOSPHONATE-LINKED COMPOUNDS” (OREGON HEALTH & SCIENCE UNIVERSITY, priority 2019, published 2022).

Assays:
PC3-M cells = test: PCa subcutaneous implantation, tumor growth; assay type: in vivo; conditions: oral 80 mg KBU2046/kg, weekly intraperitoneal docetaxel 20 mg/kg, KBU2046 added to control or docetaxel treated mice
Protocol: FIG. 1A depicts the effect of chemotherapy on the growth of androgen independent PC3-M PCa cells in vitro. Data are the mean±SEM (N=3 replicates) of cell viability in a 3 day growth assay in the presence of 10 μM KBU2046 or vehicle (control) treated with docetaxel or cabazitaxel. FIG. 1B depicts the effect of chemotherapy on the growth of androgen independent PCa cells in vivo. Mice received subcutaneous implants of PC3-M cells, were monitored until tumors were detectable (250 mm^3), and then treated daily with oral 80 mg KBU2046/kg (46) or vehicle (CO) and with weekly intraperitoneal docetaxel (doc) at 0 or 20 mg/kg, beginning on day 1, and tumor size measured. Data are mean±SEM, with N=20 mice per cohort.
PCa subcutaneous implantation: 2.5×10^5 PC3-M cells in sterile PBS were implanted into the right flank of 6-7 week old male athymic nude mice (Charles River) and tumor growth measurements were performed twice a week as previously described by us (Gordon et al., Chemotherapy-induced monoamine oxidase expression in prostate carcinoma functions as a cytoprotective resistance enzyme and associates with clinical outcomes. PLoS One 9, e104271 (2014)). […] Tumor measurements were obtained in a blinded fashion, and tumor volumes were calculated with the following formula: length×(width)^2×0.5.

PC3-M-luc cells = test: PCa orthotopic implantation, primary tumor growth and lung metastasis; assay type: in vivo, mice
Protocol: To assess the efficacy of a spectrum of docetaxel concentrations, mice received orthotopic implants of PC3-M-luc cells, were treated with 0, 10 or 20 mg/kg docetaxel, and tumor growth monitored with weekly IVIS imaging. […] Subsequently, mice with orthotopic implants of PC3-M-luc cells were treated with docetaxel, KBU2046, docetaxel+KBU2046 or vehicle, as denoted, and effects on primary tumor growth and lung metastasis quantified (FIGS. 2A, 2B, and 2C).
Cohorts of N=10 mice bearing orthotopic implants of PC3-M-luc cells were treated daily with 150 mg/kg KUB2046 (46), intraperitoneal docetaxel 7.5 mg/kg weekly (doc), the combination (doc+46), or with oral and intraperitoneal vehicle (CO). KBU2046 treatment began 3 days before implantation and docetaxel began 1 week after. (A) Lung metastasis measured by qPCR for human Alu sequences, expressed as percent control (B) Weekly IVIS imaging of tumor. (C) Tumor weight. * denotes P<0.05 for differences between cohorts denoted by bars. All data are mean±SEM.
PCa orthotopic implantation: Orthotopic implantation of 2.5×10^5 PC3M-luc into 7-8 week old male athymic mice was performed as previously described by us (5, 52 Xu et al., above; and Pavese et al., J Vis Exp, e50873 (2013)). Daily oral gavage treatment with 150 mg/kg KBU2046 or was initiated 3 days prior to implantation and continued throughout the duration of the study. Weekly IP injections with 7.5 mg/kg docetaxel or control were administered beginning one week post implantation. Primary tumor out growth was monitored via weekly IVIS imaging. At the completion of the study the primary tumor was resected and weighed and lungs were resected and snap frozen. To determine the human PCa metastatic burden in each mouse lung, the snap frozen tissue was pulverized, DNA isolated and Alu-sequencing performed as previously described (19). […] (SEQ ID NO: 3). The 144RH probe was labeled with a 5′ fluorescent reporter (6-FAM) and a 3′ fluorescent quencher (Black Hole Quencher). The relative content of human DNA was calculated with using the comparative CT method, CT (sample)-CT(negative control). All samples were run in triplicate and were repeated.

[1] = system: prostate specific antigen (PSA); test: PSA expression by qRT/PCR in LNCaP cells; assay type: cell-based, human; conditions: LNCaP cells in androgen depleted media
Protocol: (§1) Cells were cultured in media depleted of androgen and after a washout of 72 hrs were treated with the synthetic androgen R1881, KBU2046, enzalutamide and/or vehicle (control), and resultant effects upon induction of the androgen-responsive gene, prostate specific antigen (PSA) were measured (FIG. 3A).
(§2) LNCaP or VCaP cells cultured in hormone free media were treated with R1881 (R), KBU2046 (46) and/or enzalutamide (E). (FIGS. 3A and 3B) Effects on AR-responsive gene expression. PSA expression was measured by qRT/PCR, normalized to GAPDH and expressed as a percent of control cells (N=3 replicates); * denotes P<0.05 for groups separated by bar. (FIGS. 3C and 3D) Effects on cell growth. Three day growth assays were performed. Data are the number of viable cells, expressed as % of control (N=3 replicates); * P<0.05 compared to control. (E) Effects on AR activation. Western blots of nuclear (N) and cytoplasmic (C) preparations of cell extracts were probed for AR, laminin 1 or α-tubulin. (FIGS. 3F and 3G) Effects on tumor outgrowth after androgen deprivation therapy. LNCaP/AR-luc cells were implanted subcutaneously (N=6 mice/cohort) or orthotopic (N=15 mice/cohort were implanted; N=5 yielded tumors) into castrate mice, treatment with KBU2046 began as noted, and weekly IVIS imaging performed. Data are tumor size, expressed as luminescence intensity. All data are expressed as mean±SEM.
(§3) RNA was isolated and qRT/PCR performed as previously described by us (Ding et al., J Biomol Tech 18, 321-330 (2007)). Resultant data were analyzed using the 2^−ΔΔt method (Livak et al., Methods 25, 402-408 (2001)), normalized to GAPDH, for the following primer/probe sets (ABI) PSA (Hs02576345_m1) and GAPDH (Hs99999905_m1). Assays were performed in triplicate, and were repeated.

[2] = system: prostate specific antigen (PSA); test: PSA expression by qRT/PCR in VCaP cells; assay type: cell-based, human; conditions: VCaP cells in androgen depleted media
Protocol: as §1, §2, §3

LNCaP cells = test: SRB growth inhibition assay, LNCaP; assay type: cell-based, human; conditions: 10 μM enzalutamide, 10 μM KBU2046 added to control or enzalutamide treated cells, 72 hours
Protocol: as §2
(§4) Enzalutamide mediated growth inhibition was assessed using Sulforhodamine B (SRB) growth inhibition assays, were performed as previously described (49). In brief, LNCaP and VCaP cells were pre-incubated in charcoal-striped medium for 48 hours and then seeded (1.9×10^4) in 96-well plates. […]

VCaP cells = test: SRB growth inhibition assay, VCaP; assay type: cell-based, human; conditions: 10 μM enzalutamide, 10 μM KBU2046 added to control or enzalutamide treated cells, 72 hours
Protocol: as §2, §4

Row | Compound | tumor growth (PC3-M cells) | prostate tumor growth kinetics by weekly IVIS imaging (PC3-M-luc cells; cohorts receiving docetaxel 7.5 mg/kg weekly vs not) | tumor growth by weekly IVIS imaging (PC3-M-luc cells; orthotopic PC3-M-luc, 0, 10 or 20 mg/kg docetaxel, dose-dependent) | decrease of tumor weight compared to control (PC3-M-luc cells; orthotopic PC3-M-luc, 150 mg/kg KBU2046 daily, docetaxel 7.5 mg/kg weekly) | decrease of lung metastasis compared to control (human Alu qPCR) (PC3-M-luc cells; orthotopic PC3-M-luc, 150 mg/kg KBU2046 daily, docetaxel 7.5 mg/kg weekly intraperitoneal) | PSA expression [1] | PSA expression [2] | cell growth (LNCaP cells) | cell growth (VCaP cells)
1 | CC(=O)O[C@@]12CO[C@@H]1C[C@H](O)[C@@]1(C)C(=O)[C@H](O)C3=C(C)[C@@H](OC(=O)[C@H](O)[C@@H](NC(=O)OC(C)(C)C)c4ccccc4)C[C@@](O)([C@@H](OC(=O)c4ccccc4)[C@H]21)C3(C)C [docetaxel] | significantly inhibited | slower growth | significantly inhibited | 49% | 23% | – | – | – | –
2 | CNC(=O)c1ccc(N2C(=S)N(c3ccc(C#N)c(C(F)(F)F)c3)C(=O)C2(C)C)cc1F [enzalutamide] | – | – | – | – | – | decreased | decreased | significantly inhibited | significantly inhibited
